Test results: patent US5631401A, “Inhibitors of protein farnesyltransferase and squalene synthase” (Abbott Laboratories, priority 1995, dated 1997)

What was measured:
[1] = biological target: T1, Rat brain protein farnesyltransferase (Rattus norvegicus, UniProt Q02293+Q04631); experiment: In vitro inhibition of protein farnesyltransferase (biotin-lamin substrate, scintillation proximity assay); format: biochemical; settings: for inhibition at 10 µM: compared to uninhibited control; for inhibition at 1 µM: 1 μM (footnote *), read-out: % Inhibition at 1 μM (protein farnesyltransferase, values marked *)
T1 construct: The enzyme was purified according to Reiss, Y., et al., Cell, 62: 81-88 (1990), utilizing steps one through three; from tissue; host or cells: rat brain
Method: In vitro inhibition of protein farnesyltransferase may be measured by the following procedure. (Procedures for determination of the inhibition of farnesylation of the oncogene protein Ras are described by Goldstein, et al., J. Biol. Chem., 266: 15575-15578 (1991) and by Singh in U.S. Pat. No. 5,245,061 both of which are incorporated herein by reference.)
Rat brain protein farnesyltransferase activity was measured using the biotin-lamin substrate (which is known to undergo farnesylation in a manner analogous to Ras protein) and radioactive farnesyl diphosphate provided by Amersham Life Science in their commercial scintillation proximity assay kit for the determination of farnesyltransferase. The enzyme was purified according to Reiss, Y., et al., Cell, 62: 81-88 (1990), utilizing steps one through three. The specific activity of the enzyme was approximately 10 nmol substrate farnesylated/mg enzyme/hour. […]

[2] = biological target: T2, Rat liver microsomal squalene synthase (Rattus norvegicus, UniProt Q02769); experiment: In vitro inhibition of squalene synthase (rat liver microsomes, 3H-farnesyl diphosphate); format: biochemical; settings: for inhibition at 1 µM: compared to controls with no test compound; for inhibition at 10 µM: 10 μM (footnote *), read-out: % Inhibition at 10 μM (squalene synthase, values marked *)
T2 construct: Rat liver microsomes, the source of enzyme, were prepared; from tissue; host or cells: rat liver microsomes
T2 sequence (Q02769 1-416): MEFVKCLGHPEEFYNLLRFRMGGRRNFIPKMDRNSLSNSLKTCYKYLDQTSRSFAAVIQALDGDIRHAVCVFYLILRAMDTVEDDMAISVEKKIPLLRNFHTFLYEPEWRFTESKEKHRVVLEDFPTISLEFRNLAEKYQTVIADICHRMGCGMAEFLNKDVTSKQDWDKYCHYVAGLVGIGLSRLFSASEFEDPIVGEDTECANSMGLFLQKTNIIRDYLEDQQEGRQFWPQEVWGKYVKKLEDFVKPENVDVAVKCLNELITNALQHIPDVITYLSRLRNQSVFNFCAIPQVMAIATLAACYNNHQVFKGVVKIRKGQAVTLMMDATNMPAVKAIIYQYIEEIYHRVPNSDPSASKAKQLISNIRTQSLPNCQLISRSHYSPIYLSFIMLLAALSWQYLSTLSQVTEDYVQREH
Method: In vitro inhibition of squalene synthase may be measured by the following procedure.
Rat liver microsomal squalene synthase activity was measured using radioactive farnesyl diphosphate as a substrate and quantitating squalene synthesis by counting the radioactive squalene formed.
Rat liver microsomes, the source of enzyme, were prepared according to the method of Gillies, P. J., et al., Exp. Molec. Pathol. 44: 329-339 (1986), a modification of the procedure of Erickson, S. K., and Cooper, A. D., Metabolism, 29: 991-996 (1980). Approximately 30 μg of microsomal protein was incubated for 10 minutes at 37° C. with 11 μM of ^3 H-farnesyl diphosphate, 49 mCi/mmol, and test compound in the presence of squalene (2 μL), Mg^++, KF, reduced B-nicotinamide adenine dinucleotide phosphate, dithiothreitol, and K2 PO4, pH 7.35, in a total volume of 200 μL. Oxygen was excluded from the closed incubation tube by degassing with nitrogen. The reaction was terminated by the addition of ethanolic KOH and after degassing with N2, the microsomal membranes were solubilized by heating at 60° C. for 30 minutes. The squalene was extracted into hexane, and the squalene was separated from all other radioactive molecules by passage over an activated alumina column. The solution was collected in scintillation vials, evaporated to dryness, liquid scintillation fluid was added, and the radioactivity was determined in a liquid scintillation counter. […]

| SMILES | inhibition at 10 µM [1] [%] | inhibition at 1 µM [2] [%] | inhibition at 10 µM [2] [%] | inhibition at 1 µM [1] [%] |
| --- | --- | --- | --- | --- |
| O=C(O)[C@H]1[C@H](C(=O)N(Cc2ccc(Oc3ccccc3)cc2)C2CC2)[C@H](C(=O)O)[C@H]1C(=O)N(Cc1ccc(Oc2ccccc2)cc1)C1CC1 [Example 31, (1α,2β,3β,4α)-1,3-Di[N-cyclopropyl-N-(4-phenoxybenzyl)aminocarbonyl]cyclobutane-2,4-dicarboxylic acid] | 74 | 23 | – | – |
| CC(C)=CCC/C(C)=C/CCN(C)C(=O)[C@H]1[C@H](C(=O)O)[C@H](C(=O)N(C)CC/C=C(\C)CCC=C(C)C)[C@H]1C(=O)O [Example 32, (1α,2β,3β,4α)-1,3-Di[N-methyl-N-(4,8-dimethyl-3,7-nonadienyl)aminocarbonyl]cyclobutane-2,4-dicarboxylic acid] | 54 | – | 40 | – |
| O=C(O)[C@H]1[C@H](C(=O)N(Cc2ccccc2)Cc2ccccc2)[C@H](C(=O)O)[C@H]1C(=O)N(Cc1ccccc1)Cc1ccccc1 [Example 33, (1α,2β,3β,4α)-1,3-Di[N,N-dibenzylaminocarbonyl]cyclobutane-2,4-dicarboxylic acid] | 64 | – | 43 | – |
| O=C(O)[C@H]1[C@H](C(=O)N(Cc2ccccc2)Cc2ccc(Cl)cc2)[C@H](C(=O)O)[C@H]1C(=O)N(Cc1ccccc1)Cc1ccc(Cl)cc1 [Example 34, (1α,2β,3β,4α)-1,3-Di[N-benzyl-N-(4-chlorobenzyl)aminocarbonyl]cyclobutane-2,4-dicarboxylic acid] | 40 | – | 29 | – |
| COC(=O)CN(Cc1ccc(Oc2ccccc2)cc1)C(=O)[C@H]1[C@H](C(=O)O)[C@H](C(=O)N(CC(=O)OC)Cc2ccc(Oc3ccccc3)cc2)[C@H]1C(=O)O [Example 42, (1α,2β,3β,4α)-1,3-Di[N-methoxycarbonylmethyl-N-(4-phenoxybenzyl)aminocarbonyl]cyclobutane-2,4-dicarboxylic acid] | 67 | 36 | – | – |
| O=C(O)CCN(Cc1ccc(Oc2ccccc2)cc1)C(=O)C1C(C(=O)O)C(C(=O)N(CCC(=O)O)Cc2ccc(Oc3ccccc3)cc2)C1C(=O)O (stereo not drawn) [Example 44, (1α,2β,3β,4α)-1,3-Di[N-(2-carboxyethyl)-N-(4-phenoxybenzyl)aminocarbonyl]cyclobutane-2,4-dicarboxylic acid] | 81 | 30 | – | – |
| CCCN(Cc1cccc(Oc2ccccc2)c1)C(=O)C1C(C(=O)O)C(C(=O)N(CCC)Cc2cccc(Oc3ccccc3)c2)C1C(=O)O (stereo not drawn) [Example 51, (1α,2β,3β,4α)-1,3-Di[N-propyl-N-(3-phenoxybenzyl)aminocarbonyl]cyclobutane-2,4-dicarboxylic acid] | 68 | 27 | – | – |
| CCCN(Cc1ccc(Oc2ccccc2)s1)C(=O)C1C(C(=O)O)C(C(=O)N(CCC)Cc2ccc(Oc3ccccc3)s2)C1C(=O)O (stereo not drawn) [Example 53, (1α,2β,3β,4α)-1,3-Di[N-propyl-N-(5-phenoxythien-2-ylmethyl)aminocarbonyl]cyclobutane-2,4-dicarboxylic acid] | 69 | 23 | – | – |
| CCCN(Cc1ccc(Oc2ccco2)cc1)C(=O)C1C(C(=O)O)C(C(=O)N(CCC)Cc2ccc(Oc3ccco3)cc2)C1C(=O)O (stereo not drawn) [Example 54] | 59 | 23 | – | – |
| CCCN(Cc1ccc(Oc2cccc(C)c2)cc1)C(=O)C1C(C(=O)O)C(C(=O)N(CCC)Cc2ccc(Oc3cccc(C)c3)cc2)C1C(=O)O (stereo not drawn) [Example 57, (1α,2β,3β,4α)-1,3-Di{N-propyl-N-[4-(3-methylphenoxy)benzyl]aminocarbonyl}cyclobutane-2,4-dicarboxylic acid] | – | 37 | – | 26 |
| CCCN(Cc1ccc(Oc2ccc3ccccc3c2)cc1)C(=O)C1C(C(=O)O)C(C(=O)N(CCC)Cc2ccc(Oc3ccc4ccccc4c3)cc2)C1C(=O)O (stereo not drawn) [Example 58, (1α,2β,3β,4α)-1,3-Di{N-propyl-N-[4-(naphth-2-yloxy)benzyl]aminocarbonyl}cyclobutane-2,4-dicarboxylic acid] | – | 50 | – | 31 |
| CCCN(Cc1ccc(Oc2ccccc2)c(C)c1)C(=O)C1C(C(=O)O)C(C(=O)N(CCC)Cc2ccc(Oc3ccccc3)c(C)c2)C1C(=O)O (stereo not drawn) [Example 59, (1α,2β,3β,4α)-1,3-Di{N-propyl-N-[(3-methyl-4-phenoxy)benzyl]aminocarbonyl}cyclobutane-2,4-dicarboxylic acid] | 54 | 46 | – | – |
| CCCN(Cc1ccc(Nc2ccccc2)cc1)C(=O)[C@H]1[C@H](C(=O)O)[C@H](C(=O)N(CCC)Cc2ccc(Nc3ccccc3)cc2)[C@H]1C(=O)O [Example 63] | 68 | 44 | – | – |
| CCCN(Cc1ccc(Sc2ccccc2)cc1)C(=O)C1C(C(=O)O)C(C(=O)N(CCC)Cc2ccc(Sc3ccccc3)cc2)C1C(=O)O (stereo not drawn) [Example 64] | 64 | 33 | – | – |
| CCCN(CCc1ccc(Oc2ccccc2)cc1)C(=O)C1C(C(=O)O)C(C(=O)N(CCC)CCc2ccc(Oc3ccccc3)cc2)C1C(=O)O (stereo not drawn) [Example 67, (1α,2β,3β,4α)-1,3-Di[N-propyl-N-(2-(4-phenoxyphenyl)ethyl)aminocarbonyl]cyclobutane-2,4-dicarboxylic acid] | – | 47 | – | 61 |
| COCCN(Cc1ccc(Oc2ccccc2)cc1)C(=O)C1C(C(=O)O)C(C(=O)N(CCOC)Cc2ccc(Oc3ccccc3)cc2)C1C(=O)O (stereo not drawn) [Example 68, (1α,2β,3β,4α)-1,3-Di[N-(2-methoxyethyl)-N-(4-phenoxybenzyl)aminocarbonyl]cyclobutane-2,4-dicarboxylic acid] | 49 | 52 | – | – |
| CSCCN(Cc1ccc(Oc2ccccc2)cc1)C(=O)C1C(C(=O)O)C(C(=O)N(CCSC)Cc2ccc(Oc3ccccc3)cc2)C1C(=O)O (stereo not drawn) [Example 69, (1α,2β,3β,4α)-1,3-Di[N-(2-methylthioethyl)-N-(4-phenoxybenzyl)aminocarbonyl]cyclobutane-2,4-dicarboxylic acid] | – | 23 | – | 31 |
| CCSCCN(Cc1ccc(Oc2ccccc2)cc1)C(=O)C1C(C(=O)O)C(C(=O)N(CCSCC)Cc2ccc(Oc3ccccc3)cc2)C1C(=O)O (stereo not drawn) [Example 70, (1α,2β,3β,4α)-1,3-Di[N-(2-ethylthioethyl)-N-(4-phenoxybenzyl)aminocarbonyl]cyclobutane-2,4-dicarboxylic acid] | 77 | 76 | – | – |
| O=C(O)C1C(C(=O)N(CCSCc2ccccc2)Cc2ccc(Oc3ccccc3)cc2)C(C(=O)O)C1C(=O)N(CCSCc1ccccc1)Cc1ccc(Oc2ccccc2)cc1 (stereo not drawn) [Example 71, (1α,2β,3β,4α)-1,3-Di[N-(2-benzylthioethyl)-N-(4-phenoxybenzyl)aminocarbonyl]cyclobutane-2,4-dicarboxylic acid] | – | 25 | – | 32 |
| O=C(O)C1C(C(=O)N(Cc2ccc(Oc3ccccc3)cc2)Cc2ccco2)C(C(=O)O)C1C(=O)N(Cc1ccc(Oc2ccccc2)cc1)Cc1ccco1 (stereo not drawn) [Example 72, (1α,2β,3β,4α)-1,3-Di[N-(furan-2-ylmethyl)-N-(4-phenoxybenzyl)aminocarbonyl]cyclobutane-2,4-dicarboxylic acid] | – | 32 | – | 82 |
| O=C(O)[C@H]1[C@H](C(=O)N(Cc2ccc(Oc3ccccc3)cc2)Cc2cccs2)[C@H](C(=O)O)[C@H]1C(=O)N(Cc1ccc(Oc2ccccc2)cc1)Cc1cccs1 [Example 73, (1α,2β,3β,4α)-1,3-Di[N-(thien-2-ylmethyl)-N-(4-phenoxybenzyl)aminocarbonyl]cyclobutane-2,4-dicarboxylic acid] | – | 24 | – | 92 |
